Data set [1] deals with T1, Peroxisome proliferator-activated receptor gamma (Homo sapiens) (UniProt P37231).
T1 sequence (whole entry): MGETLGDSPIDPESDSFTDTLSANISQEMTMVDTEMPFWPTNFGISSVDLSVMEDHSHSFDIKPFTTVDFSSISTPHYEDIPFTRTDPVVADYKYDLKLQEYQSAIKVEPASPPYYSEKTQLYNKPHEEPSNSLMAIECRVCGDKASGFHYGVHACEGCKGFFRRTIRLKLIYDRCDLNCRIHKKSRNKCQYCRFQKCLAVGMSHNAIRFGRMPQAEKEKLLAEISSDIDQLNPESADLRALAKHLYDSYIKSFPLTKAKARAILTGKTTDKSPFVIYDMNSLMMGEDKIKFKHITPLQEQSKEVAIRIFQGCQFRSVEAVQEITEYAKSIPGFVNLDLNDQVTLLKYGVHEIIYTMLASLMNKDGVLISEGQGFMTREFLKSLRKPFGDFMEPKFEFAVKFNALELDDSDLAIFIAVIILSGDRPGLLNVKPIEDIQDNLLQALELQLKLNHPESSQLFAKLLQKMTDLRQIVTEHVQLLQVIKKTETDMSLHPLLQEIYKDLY
In words: Agonist activity at recombinant human GAL4-DBD fused PPARgamma LBD expressed in COS7 cells at 10 uM after 24 hrs by luciferase reporter gene assay relative to rosiglitazone. It is filed as cell-based. (In general: In a reporter assay the amount or activity of a reporter protein is the signal.)

In data set [2] the target is T2, Peroxisome proliferator-activated receptor alpha (Homo sapiens, UniProt Q07869).
T2 sequence (Q07869 whole entry): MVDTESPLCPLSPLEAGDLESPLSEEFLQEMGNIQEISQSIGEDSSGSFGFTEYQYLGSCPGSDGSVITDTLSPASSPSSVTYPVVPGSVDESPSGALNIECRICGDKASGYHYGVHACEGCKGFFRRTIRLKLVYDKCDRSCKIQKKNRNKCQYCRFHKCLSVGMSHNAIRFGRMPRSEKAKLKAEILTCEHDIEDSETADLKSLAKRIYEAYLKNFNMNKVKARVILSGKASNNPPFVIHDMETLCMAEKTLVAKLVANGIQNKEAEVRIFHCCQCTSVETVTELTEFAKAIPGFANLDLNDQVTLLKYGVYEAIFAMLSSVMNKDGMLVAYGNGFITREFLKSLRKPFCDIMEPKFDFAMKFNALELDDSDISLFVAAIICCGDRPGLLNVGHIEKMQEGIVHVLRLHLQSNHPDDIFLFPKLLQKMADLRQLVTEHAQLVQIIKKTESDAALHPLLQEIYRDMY
In words: Agonist activity at recombinant human GAL4-DBD fused PPARalpha LBD expressed in COS7 cells after 24 hrs by luciferase reporter gene assay. It is filed as cell-based.

The target of data set [3] is T3, Peroxisome proliferator-activated receptor alpha (Homo sapiens) (UniProt Q07869).
T3 sequence (whole entry): T2 sequence (Q07869 whole entry)
The data set is described as follows: Agonist activity at recombinant human GAL4-DBD fused PPARalpha LBD expressed in COS7 cells at 10 uM after 24 hrs by luciferase reporter gene assay relative to 2-(4-tert-Butylphenoxy)-3-[4-[2-[(4-pyridin-2-ylbenzoyl)amino]ethoxy] phenyl]propionic acid. Type of data set: cell-based.

Data set [4] is described as follows: 1-octanol/PBS distribution co-efficient, log D of the compound at […] at pH 7.4 after 30 mins by HPLC-MS/MS method. Type of data set: physicochemical.
Data set [5] can be described thus: Aqueous thermodynamic solubility of the compound in pH 6.8 solution up to 4 hrs by HPLC-UV analysis. Type of data set: physicochemical. The conditions noted are these: read-out: Therm_solubility.
Data set [6] in a line: Apparent permeability of the compound after 4 hrs by PAMPA. It is filed as ADME. Background: The PAMPA barrier holds no transporters, so it reflects passive diffusion.
Data set [7] in a line: Metabolic stability in human liver microsomes after 0.5 hrs. It is filed as ADME, microsome. The conditions noted are these: read-out: Stability. In general terms: Microsomes from liver hold many membrane-bound enzymes, among them those of drug oxidation.
Data set [8] has as its target T4, Peroxisome proliferator-activated receptor gamma (Homo sapiens, UniProt P37231).
T4 sequence (P37231 whole entry): T1 sequence (whole entry)
In words: Agonist activity at recombinant human GAL4-DBD fused PPARgamma LBD expressed in COS7 cells after 24 hrs by luciferase reporter gene assay. Type of data set: cell-based.

Converted amounts (≈) assume the structure as drawn.

For orientation: EC50 means the concentration giving half of the maximal effect. A word on the logD: it is lipophilicity at a set pH, counting ionised and neutral species. Read a high logD as a more lipophilic compound. As a reminder, the Papp is the rate of passage across a membrane or cell layer, normalised by area and donor concentration.

As for `Cc1cc(F)cnc1Oc1ccc2nc(COc3cccc(C(=O)O)c3)n(C)c2c1`, the Emax in data set [1] stood at 100%; in data set [3] it was 2%. For the same compound, in data set [2], the EC50 is more than 10 µM. Besides, in data set [4], the log distribution coefficient (logD) at 0.5 h is 1.1. Moreover, the solubility thermodynamic at 4 h in data set [5] was determined as 14 µg/mL (≈ 34.4 µM). Moreover, the Papp at 4 h in data set [6] stood at 8.3 ×10⁻⁶ cm/s. Also, the remaining at 0.5 h in data set [7] was 93%.
With `Cc1ccc(C)c(Oc2ccc3nc(COc4cccc(C(=O)O)c4)n(C)c3c2)n1`, the EC50 was 717 nM in data set [8] and more than 10 µM in data set [2]. Further, the Emax in data set [1] amounted to 117%; in data set [3], 7%. In addition, the logD at 0.5 h in data set [4] is 1.4. The solubility thermodynamic at 4 h in data set [5] came to 85 µg/mL (≈ 211 µM). In addition, the Papp at 4 h in data set [6] stood at 11 ×10⁻⁶ cm/s.
Turning to `Cc1ccnc(Oc2ccc3nc(COc4cccc(C(=O)O)c4)n(C)c3c2)c1`, the EC50 in data set [8] is 458 nM; in data set [2] it was more than 10 µM. Moreover, the Emax in data set [1] came to 41%; in data set [3] it was 2%. Further, the logD at 0.5 h in data set [4] was found to be 0.8. For the same compound, the solubility thermodynamic at 4 h in data set [5] was found to be 33 µg/mL (≈ 84.7 µM). Moreover, the Papp at 4 h in data set [6] is 3.5 ×10⁻⁶ cm/s.
Regarding `Cn1c(COc2cccc(C(=O)O)c2)nc2ccc(Oc3ccccn3)cc21`, the EC50 in data set [8] is 1130 nM; in data set [2] it was more than 10 µM. In addition, the Emax came to 74% in data set [1] and 1% in data set [3]. Besides, in data set [4], the logD at 0.5 h turned out to be 0.4. Besides, the solubility thermodynamic at 4 h in data set [5] turned out to be 62 µg/mL (≈ 165 µM). In data set [6], the Papp at 4 h was found to be 2.2 ×10⁻⁶ cm/s. Further, the remaining at 0.5 h in data set [7] stood at 100%.
For the compound `Cn1c(COc2cccc(C(=O)O)c2)nc2ccc(Oc3ncccc3F)cc21`, the values for the EC50 in data set [8] and in data set [2] were 280 nM and more than 10 µM, respectively. In addition, the Emax in data set [1] was found to be 80%; in data set [3], 3%. Further, the logD at 0.5 h in data set [4] is 0.6. For the same compound, the solubility thermodynamic at 4 h in data set [5] is 7.1 µg/mL (≈ 18 µM). In data set [6], the Papp at 4 h turned out to be 3.9 ×10⁻⁶ cm/s. The remaining at 0.5 h in data set [7] was 100%.
In the case of `Cn1c(COc2cccc(C(=O)O)c2)nc2ccc(Oc3cccc(Cl)n3)cc21`, the concentration giving a half-maximal response (EC50) is 736 nM in data set [8] and more than 10 µM in data set [2]. Further, the results for the Emax in data set [1] and in data set [3] were 67% and 13%, respectively. In data set [4], this compound displayed a logD at 0.5 h of 1.2. In data set [5], the solubility thermodynamic at 4 h was determined as 7.7 µg/mL (≈ 18.8 µM). For the same compound, in data set [6], the Papp at 4 h amounted to 7.6 ×10⁻⁶ cm/s. Besides, the remaining at 0.5 h in data set [7] worked out at 98%.
`Cc1cccc(Oc2ccc3nc(COc4cccc(C(=O)O)c4)n(C)c3c2)n1`: the 50% effective concentration (EC50) in data set [8] is 1890 nM; in data set [2] it was more than 10 µM. Besides, the Emax in data set [1] was 78%; in data set [3] it was 1%. In addition, the logD at 0.5 h in data set [4] is 0.8. Also, the solubility thermodynamic at 4 h in data set [5] was 92 µg/mL (≈ 236 µM). Moreover, the Papp at 4 h in data set [6] worked out at 2.7 ×10⁻⁶ cm/s. For the same compound, the remaining at 0.5 h in data set [7] is 100%.
As for `Cn1c(COc2cccc(C(=O)O)c2)nc2ccc(Oc3ncccc3Cl)cc21`, the concentration for a half-maximal effect (EC50) is 200 nM in data set [8] and more than 10 µM in data set [2]. For the same compound, the Emax was 93% in data set [1] and 6% in data set [3]. In data set [4], this compound came in with a logD at 0.5 h of 1.1. Further, the solubility thermodynamic at 4 h in data set [5] was determined as 15 µg/mL (≈ 36.6 µM). For the same compound, in data set [6], the Papp at 4 h stood at 8.1 ×10⁻⁶ cm/s. The remaining at 0.5 h in data set [7] is 99%.
With `COC(=O)c1cccc(OCc2nc3ccc(Oc4ccccc4)nc3n2C)c1`, in data set [8], the EC50 worked out at 12400 nM. Further, the Emax in data set [1] came to 65%.
As to `Cn1c(COc2cccc(C(=O)O)c2)nc2ccc(Oc3cc(Cl)ccn3)cc21`, the concentration giving a half-maximal response (EC50) in data set [8] is 615 nM; in data set [2], more than 10 µM. For the same compound, the Emax in data set [1] came out at 93%; in data set [3] it was 11%. The compound also came in with a logD at 0.5 h in data set [4] of 1.2. The solubility thermodynamic at 4 h in data set [5] was 11 µg/mL (≈ 26.8 µM). Further, in data set [6], the Papp at 4 h was determined as 10.3 ×10⁻⁶ cm/s.
As for `Cn1c(COc2cccc(C(=O)O)c2)nc2ccc(Oc3ccc(F)cn3)cc21`, the EC50 in data set [8] is 808 nM; in data set [2] it was more than 10 µM. Further, the Emax in data set [1] turned out to be 87%; in data set [3], 5%. This compound also yielded a logD at 0.5 h in data set [4] of 0.6. Moreover, the solubility thermodynamic at 4 h in data set [5] worked out at 79 µg/mL (≈ 201 µM). For the same compound, the Papp at 4 h in data set [6] was determined as 4.7 ×10⁻⁶ cm/s.
For `Cc1cnc(Oc2ccc3nc(COc4cccc(C(=O)O)c4)n(C)c3c2)c(F)c1`, the values for the Emax in data set [1] and in data set [3] were 74% and 4%, respectively.

These data come from ChEMBL document CHEMBL4152362, “Discovery of DS-6930, a potent selective PPARγ modulator. Part II: Lead optimization” (Bioorg Med Chem, 2018).
